Key:
[1] = test system: EET formation in rat renal microsomes; assay: EET formation in rat renal microsomes ([3H]-AA, Example 3); type: biochemical; conditions: highest concentration studied, 1,000 ng/ml or 5 μM
Experimental: All procedure was carried out at 4° C. Renal cortex was pooled from twenty male SHR rats (6 weeks of age). They were homogenized extensively in lysis buffer (20 mM HEPES, pH 7.4, 1 mM EDTA, 100 μM p-(amidinophenyl)metanesulfonyl fluoride and 250 mM sucrose), and centrifuged at 16,000×g for 10 min. Supernatant was further centrifuged at 16,000×g for 30 min. Soluble fraction was collected and centrifuged at 200,000×g for 30 min. The resulting pellet was suspended in 50 mM MOPS buffer.
The reaction was terminated by adding formic acid and acetonitrile to a final concentration of 1% and 50%, respectively.

[2] = HET0016 levels in plasma and brain; type: in vivo; conditions: rat; for concentration at 1 h: iv
Experimental: Measurement of HET0016 levels in plasma and brain. […] After a one hour equilibration period, the rats were anesthesized with pentobarbital and a blood sample was collected from the jugular vein. The rats were then sacrificed and the brain was removed, weighed and homogenized in 3 volumes of 0.9% NaCl solution using a Physcotron homogenizer (Nition-Ikakikai, Chiba, Japan). […] The samples were mixed with 1 ml of acetonitrile, centrifuged and 20 μl of the clear supernatant was injected into the LC/MS. The samples were separated on a 200×4.6 mm Capcellpak UG 120 ODS column (Shiseido Corp., Tokyo, Japan) and eluted with acetonitrile:water (72/28). Peaks were monitored using a Sciex API 3000 mass spectrometer (Perkin Elmer Sciex, Ontario, Canada) tuned to detect the precursor to product transitions specific for each analyte.

[3] = test system: rat 20-HETE synthesizing enzyme; assay: Synthesis of 20-HETE in rat renal microsomes ([14C]-AA); type: biochemical; conditions: 1.5 nM, lowest dose tested
Experimental: Microsomes were prepared by differential centrifugation as previously described. […] The reactions were terminated by acidification to pH 3.5 using 0.1 mol/L formic acid and extracted with ethyl acetate. Metabolites were separated using a 25 cm×2 mm i.d. (Supelco Inc., Bellefonte, Pa.) C18-reverse phase HPLC column and a linear elution gradient ranging from acetonitrile:water: acetic acid (50/50/0.1) to acetonitrile:acetic acid (100/0.1) over a 40 min period. The radioactive products were monitored using a radioactive flow detector (Model 120, Radiomatic Instrument Co., Tampa, Fla.).

canine neutrophils = assay: Formation of 20-HETE by canine neutrophils; type: cell-based; conditions: Canis lupus familiaris, Neutrophil, read-out: IC50, formation of 20-HETE by canine neutrophils; 2×10^7 cells in dog CSF, 2 hours, n=4
Experimental: Experiments were performed to determine the cell type in canine blood responsible for the formation of 20-HETE. Experiments were performed using 4 male Beagle dogs. The dogs were anesthetized with sodium pentobarbital (30 mg/kg, i.v.). Venous blood sample was drawn and immediately mixed with 1:9 volume of trisodium citrate (3.8%) as an anticoagulant. Neutrophils were prepared to 98% purity using a percoll gradient technique. CSF was drawn from the Cistema Magna by using a 20 gauge needle. Only clear CSF sample without blood was used for the present experiment. The CSF was oxygenated with mixed gas (95% O2, 5% CO2) for 30 min. Neutrophils were suspended in the oxygenated CSF and cell numbers were adjusted to 2×10^6, 6.3×10^6, and 2×10^7. Whole blood (20 μl), red blood cells (20 μl) or neutrophils were incubated in the oxygenated CSF (180 μl) including 1 mM NADPH and [^3H]-AA at 37° C. for 2 hrs. The reaction was terminated by the addition of formic acid. One hundred percent acetonitrile (200 μl) was added to the reaction buffer to adjust final concentration to 50% for HPLC separation. […] The labeled products formed were monitored using a radioactive flow detector (raytest GmbH, Straubenhardt, Germany).
The reactions were terminated by addition of formic acid. […] The labeled metabolites were monitored using a radioactive flow detector ramona 93 (raytest GmbH, Straubenhardt, Germany).

[4] = Physiological parameters (MAP, endtidal pCO2) during the SAH experiment; type: in vivo, rat; conditions: rats, any time
Experimental: Surgical preparation. Rats were anesthetized with ketamine (Ketaject® 20 mg/kg i.m.) and thiobutabarbital sodium (Inactin® 50 mg/kg i.p.). A cannula was placed in the trachea and the rats were artificially ventilated using a small animal ventilator (SAR-830, CWE, Inc., Ardmore, Pa.) with a mixture of 30% O2 in N2. The femoral vein was cannulated for the infusion of drug and the rats received an i.v. infusion of 0.9% NaCl solution at a rate of […] to replace fluid losses. The femoral artery was cannulated for measurement of mean arterial pressure (MAP) and arterial blood gases. Endtidal partial pressure of carbon dioxide (pCO2) was controlled at 38 mmHg by adjusting the minute ventilation according to the reading of an CO2 analyzer (Capstar-100 IITC, Inc., Woodland Hills, Calif.). Blood samples were collected at the beginning and end of the experiment and analyzed using a blood gas analyzer (ABL 300, Radiometer, Copenhagen, Denmark) to validate the endtidal pCO2 readings. Anesthesia was maintained by administering additional amounts of thiobutabarbital (8 mg/kg i.v.) as needed. Rectal body temperature was maintained at 37±1° C.

Structure (SMILES): CCCCc1ccc(N=CNO)c(C)c1 [HET0016, N-hydroxy-N′-(4-butyl-2-methylphenyl)-formamidine]
- EET formation [1]: did not inhibit
- concentration at 1 h ([2]; brain, 1 hr after i.v. 10 mg/kg): 7.2 µM
- concentration at 1 h ([2]; brain, 1 hr after i.v. 10 mg/kg, n=3): 1490 ng/g
- concentration at 1 h ([2]; plasma, 1 hr after i.v. 10 mg/kg, n=3): 570 ± 90 ng/mL
- HET0016 level in plasma (molar) ([2]; 1 hr after i.v. 10 mg/kg): 2.8 µM
- concentration at 1 h ([2]; plasma, one hour after i.v. 10 mg/kg body weight): 2.8 µM
- inhibition of rat 20-HETE synthesizing enzymes [3]: about 20%
- IC50 (canine neutrophils): 10.2 ± 1.3 nM
- MAP (blood pressure) versus vehicle [4]: no difference
- endtidal pCO2 versus vehicle [4]: no significant differences

From patent US7307101B2, “Use of 20-HETE synthesizing enzyme inhibitors as therapy for cerebral vascular disease” (MCW Research Foundation, Inc., priority 2000, dated 2007)
